The values that follow come from patent publication US6852710B2, “2-alkoxyestradiol analogs with antiproliferative and antimitotic activity” (Southwest Foundation for Biomedical Research, priority 2001, dated 2005).

Experiment [1] deals with Human Umbilical Vein Endothelial Cells (HUVEC). Description: HUVEC invasion, Matrigel invasion chambers. Format: cell-based. The text has this: FIG. 3 illustrates the effects of compounds on Human Umbilical Vein Endothelial Cells (HUVEC) cell invasion. Becton-Dickinson (BD) Biocoat® Matrigel® invasion chambers were used to construct dose response curves of the compounds for invasion of HUVECs. n=3±SD;
A second assay was also used to evaluate the analogs for potential antiangiogenic activity. The complex process of endothelial cell invasion and migration are key events during angiogenesis. The ability of compounds to inhibit the invasion and migration of endothelial cells through a biological membrane matrix was evaluated. Specifically, the ability of the 2-ME2 analogs, 15-dehydro-2-ME2, 14-dehydro-2-ME2 and 2-ME2-15α,16α to inhibit the invasion and migration of human umbilical vein endothelial cells (HUVEC) through Matrigel® basement membrane material and a PET membrane with 8 μm pores was evaluated. HUVECs were obtained from BioWhittaker and were used during passages of 2 to 6. BD Biocoat® Matrigel® invasion chambers were used for the assays. These modified Boyden chambers have a PET membrane with 8 μm pores that have been coated with Matrigel®. The membrane separates the upper chamber from the lower chamber. HUVECs were plated into the top chamber in media containing 0.1% bovine serum albumin with either a test compound or vehicle and allowed to invade and migrate through pores for 24 hours. The media in the lower chamber contained the chemoattractant, 10% fetal bovine, serum. Following the incubation period the cells on the top of the membrane were removed with a cotton swab and the cells that had migrated through the pores to the lower surface of the membrane were stained with hematoxylin and eosin and counted microscopically. Experiments were conducted in duplicate and the numbers of cells that migrated were counted in 10 microscope fields per transwell chamber. The data are expressed as percent of vehicle control invasion. Dose response curves were generated and are shown in FIG. 3 and the IC50s for inhibition of HUVEC invasion were determined and are presented above in Table 4. All of the 2-ME2 analogs inhibited HUVEC invasion.

The test system is the same in experiment [2]. Put plainly: HUVEC proliferation (SRB assay). Format: cell-based. The text has this: FIG. 2 illustrates the effects of compounds on Human Umbilical Vein Endothelial Cells (HUVEC) proliferation. The SRB assay was used to construct the dose response curves of the agents in HUVEC cells. n=3±SD;
Two in vitro assays were used to detect the potential for antiangiogenic activity of the analogs. One assay tested the ability of the analogs to inhibit the cellular proliferation of endothelial cells as shown below (Table 4). The ability of the analogs to inhibit the proliferation of endothelial cells was tested and compared to the effects of 2-ME2. Drugs that have antiangiogenic activity inhibit the proliferation of endothelial cells.
For orientation: Sulforhodamine B stains cellular protein and so reports cell mass.

A further experiment relates to NCI/ADR cells. Put plainly: SRB assay, inhibition of proliferation, multidrug resistant line. Format: cell-based, human. An excerpt: The SK-OV-3 cell line was derived from ovarian carcinoma, the MDA-MB-435 and NCI/ADR from breast adenocarcinoma, PC3 and DU 145 from prostate carcinoma and HeLa from cervical carcinoma. The SK-OV-3, HeLa, PC3, and DU 145 and cell lines were obtained from the American Type Culture Collection, 10801 University Blvd., Manassas, Va. 20110-2209. The MDA-MB-435 cell line was obtained from the Lombardi Cancer Center of Georgetown University School of Medicine and the NCI/ADR cell line was obtained from the National Cancer Institute, Fairview Center, Suite 204, 1003 West 7th Street, Frederick, Md. 21701-8531.
(§1) Cells were plated into 96 well plates and allowed to grow and attach for 18-24 hours and then the drugs or vehicle controls were added to the wells. Each data point represents the mean of three experiments, each of which consisted of three replicates within an experiment. The cells were incubated with the drugs for 48 hours and then the cellular protein was fixed and quantified using the sulforhodamine B (SRB) assay. The absorbance of the dye is linear with respect to both cell protein and cell number (Skehan, P.; Storeng, R.; Scudiero, D., Monks; A., McMahon, J.; Vistica, D., Warren, J. T.; Bokesch, H., Kenney, S.; and Boyd, M. R., “New colorimetric cytotoxicity assay for anticancer-drug screening”, J. Natl. Cancer Inst, 82, 1107-1112 (1990)). The effects of the drugs were compared to vehicle controls and the data plotted as percent of control vs. log of drug concentration.
(§2) The IC50 is defined as the drug concentration required to inhibit cell proliferation 50% and is calculated from the linear portion of the log concentration response curve.
(§3) The IC50 values for inhibition of proliferation were calculated from the log dose response curve (n=3, mean±SD).
The effects of the analogs on a multi-drug resistant cell line were also studied. The NCI/ADR cell line is resistant to many chemotherapeutic agents by virtue of its high expression of the drug efflux pump P-glycoprotein. The NCI/ADR cell line was obtained from the National Cancer Institute, Fairview Center, Suite 204, 1003 West 7th Street, Frederick, Md. 21701-8531.
The IC50 values for inhibition of proliferation were calculated from the dose-response curves. The values represent the mean of 3 experiments ±SD. Resistance factors were calculated by dividing the IC50 of the resistant cell line, NCI/ADR, by the IC50 in a drug sensitive cell line, MDA-MB-435.

For experiment [3], the system named is MDA-MB-435 breast cancer xenograft. Put plainly: MDA-MB-435 breast cancer xenograft model. Format: in vivo, mice. Here is the method:
FIG. 4 illustrates the effects of compounds in an MDA-MB-435 breast cancer xenograft model. The data are the means of the groups ±SEM. Statistical significance (P<0.05) is indicated by an asterisk;
The analogs were tested for antitumor activity using an MDA-MB-435 breast cancer xenograft model. Tumor fragments of MDA-MB-435 (30 mg) were implanted subcutaneously into female athymic NCr-nu mice (SWF-1) weighing approximately 24 g. The tumor fragments were harvested from nude mice hosts. Animal weight and tumor dimensions were measured twice weekly with calipers and tumor weights estimated using 2-dimensional measurements of length and width and the formula [1×(w)^2]/2. When the tumors reached an approximate size equivalent to 175 mg (13 days after implantation) the mice were randomized to treatment or control groups and treatments were begun. The compounds were administered intraperitoneally daily for 30 days on the basis of individual animal body weights. Treatment groups contained 10 mice and the vehicle treated control group consisted of 20 mice. The mean tumor burdens were plotted for each treatment group and compared to controls. The means of the tumor burden data were analyzed for differences using a one-sided Student's t-test, with a P<0.05 considered to be significant difference. Tumor growth delay, the difference between the time for the median of each group (treatment and control) to reach a tumor burden of 1500 mg was calculated.

The subject of another experiment is 6 human tumor cell lines. Put plainly: SRB antiproliferative assay, panel of tumor cell lines. Format: cell-based. The settings on record: in words; 15-dehydro-2-ME2: MDA-MB-435, NCI/ADR, PC3, HeLa and SK-OV-3. As to the method:
(§4) The 4 analogs of 2-ME2 set forth in Table 1 were tested for antiproliferative activity against 6 human tumor cell lines. The SK-OV-3 cell line was derived from ovarian carcinoma, the MDA-MB-435 and NCI/ADR from breast adenocarcinoma, PC3 and DU 145 from prostate carcinoma and HeLa from cervical carcinoma. The SK-OV-3, HeLa, PC3, and DU 145 and cell lines were obtained from the American Type Culture Collection, 10801 University Blvd., Manassas, Va. 20110-2209. The MDA-MB-435 cell line was obtained from the Lombardi Cancer Center of Georgetown University School of Medicine and the NCI/ADR cell line was obtained from the National Cancer Institute, Fairview Center, Suite 204, 1003 West 7th Street, Frederick, Md. 21701-8531.
as §1, §2

A further experiment has as its system DU 145 cells. Put plainly: SRB assay, inhibition of proliferation. It is filed as cell-based, human. As to the method: as §4, §1, §2, §3
The subject of another experiment is MDA-MB-435 cells. Description: SRB assay, inhibition of proliferation. Format: cell-based, human. Particulars: Homo sapiens; MDA-MB-435, 48 hours, n=3 mean±SD. As to the method: as §4, §1, §2, §3
A further experiment deals with HeLa cells. Put plainly: SRB assay, inhibition of proliferation. The settings on record: Homo sapiens, 48 hours, n=3 mean±SD. It is filed as cell-based. As to the method: as §4, §1, §2, §3
Another experiment deals with SK-OV-3 cells. Put plainly: SRB assay, inhibition of proliferation. It is filed as cell-based. Particulars: Homo sapiens; SK-OV-3, 48 hours, n=3 mean±SD. Here is the method: as §4, §1, §2, §3
For another experiment, the system named is PC3 cells. Put plainly: SRB assay, inhibition of proliferation. It is filed as cell-based. Particulars: Homo sapiens, PC-3; PC3, 48 hours, n=3 mean±SD. As to the method: as §4, §1, §2, §3

With `COc1cc2c(cc1O)CC[C@@H]1[C@@H]2CC[C@]2(C)[C@@H](O)C=C[C@@H]12` [15-dehydro-2-ME2, 2-Methoxyestra-1,3,5(10), 15-tetraen-3,17β-diol], the “potency relative to 2-ME2 in inhibiting HUVEC invasion” value in [1] (HUVEC invasion) is given as “equipotent with 2-ME2”. Further, the IC50 turned out to be 2070 ± 80 nM in [1] (Homo sapiens, HUVEC, Matrigel, 24 hours); 720 ± 20 nM in experiment [2] (Homo sapiens, HUVEC, SRB assay); 490 ± 60 nM in the experiment on NCI/ADR cells (Homo sapiens, NCI/ADR-RES, NCI/ADR multidrug resistant, 48 hours, n=3 mean±SD); 1250 ± 320 nM in the experiment with DU 145 cells (Homo sapiens, DU 145, 48 hours, n=3 mean±SD); 860 ± 110 nM in the experiment on MDA-MB-435 cells; 430 ± 80 nM with HeLa cells. Further, the IC50 with SK-OV-3 cells stood at 1370 ± 260 nM; with PC3 cells, 1820 ± 980 nM. Further, in experiment [2] (HUVEC proliferation, in words), the “potency relative to 2-ME2, HUVEC proliferation” value is “equipotent with the parental compound”. This compound also showed an NCI-ADR/MDA-MB-435 resistance factor in the experiment on NCI/ADR cells (IC50 in NCI/ADR divided by IC50 in MDA-MB-435) of 0.57. This compound also registered a tumor growth delay in [3] (intraperitoneally daily for 30 days, time for median to reach tumor burden of 1500 mg vs control) of 7.5 days. The “days with statistically significant differences between control and treated tumors” value in experiment [3] (one-sided Student's t-test, P<0.05) was “days 16-26 and day 36”. Besides, the “antitumor effect compared with 2-ME2” value in [3] (tumor burden versus time) is given as “superior to 2-ME2”. In addition, the “potency compared with 2-ME2, tumor cell lines” value with 6 human tumor cell lines is “approximately equal in potency to 2-ME2”. Also, the “potency relative to 2-ME2” value in the experiment with DU 145 cells (DU 145 cell line) was “over three times more potent”.

Broadly, the IC50 is the concentration that gives 50% inhibition. Low values mean inhibition by little substance, high ones a need for much substance.
